Laboratory results published in PubChem BioAssay (NCI).
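GI50 marks 50% less growth. TGI marks complete inhibition of growth.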

Key:
Assay in all cases: NCI anticancer screen, dose series, 384-well format
[1] = tested on: A498 renal
[2] = tested on: A549 NSCLC
[3] = tested on: ACHN renal
[4] = tested on: BT-549 breast
[5] = tested on: CCRF-CEM leukemia
[6] = tested on: COLO 205 colon
[7] = tested on: DU-145 prostate
[8] = tested on: HCC-2998 colon
[9] = tested on: HCT-116 colon
[10] = tested on: HCT-15 colon
[11] = tested on: HOP-62 NSCLC
[12] = tested on: HOP-92 NSCLC
[13] = tested on: HS 578T breast
[14] = tested on: HT29 colon
[15] = tested on: IGROV1 ovarian
[16] = tested on: K-562 leukemia
[17] = tested on: KM12 colon
[18] = tested on: LOX IMVI melanoma
[19] = tested on: MALME-3M melanoma
[20] = tested on: MCF7 breast
[21] = tested on: MDA-MB-231 breast
[22] = tested on: MDA-MB-468 breast
[23] = tested on: MOLT-4 leukemia
[24] = tested on: NCI-H226 lung
[25] = tested on: NCI-H23 lung
[26] = tested on: NCI-H322M lung
[27] = tested on: NCI/ADR-RES ovarian
[28] = tested on: OVCAR-3 ovarian
[29] = tested on: OVCAR-4 ovarian
[30] = tested on: OVCAR-5 ovarian
[31] = tested on: OVCAR-8 ovarian
[32] = tested on: PC-3 prostate
[33] = tested on: RXF 393 renal
[34] = tested on: SF-268 CNS
[35] = tested on: SF-295 CNS
[36] = tested on: SF-539 CNS
[37] = tested on: SK-MEL-28 melanoma
[38] = tested on: SK-OV-3 ovarian
[39] = tested on: SN12C renal
[40] = tested on: SNB-19 CNS
[41] = tested on: SNB-75 CNS
[42] = tested on: SW-620 colon
[43] = tested on: TK-10 renal
[44] = tested on: UACC-257 melanoma
[45] = tested on: UACC-62 melanoma
[46] = tested on: UO-31 renal

SMILES: COc1cc(Nc2ncc3c(n2)-c2ccc(Cl)cc2C(c2c(F)cccc2OC)=NC3)ccc1C(=O)O
- GI50 [1]: 0.0833 µM
- TGI [1]: 29.6 µM
- GI50 [2]: 0.0795 µM
- TGI [2]: 16.8 µM
- GI50 [3]: 1.81 µM
- TGI [3]: 19.7 µM
- GI50 [4]: 0.0986 µM
- TGI [4]: 20.1 µM
- GI50 [5]: 0.0192 µM
- TGI [5]: 0.0773 µM
- GI50 [6]: 0.0376 µM
- TGI [6]: > 100 µM
- GI50 [7]: 10.6 µM
- TGI [7]: 26.6 µM
- GI50 [8]: 3.24 µM
- TGI [8]: 47.9 µM
- GI50 [9]: 0.0293 µM
- TGI [9]: 25.2 µM
- GI50 [10]: 0.0581 µM
- TGI [10]: 37.2 µM
- GI50 [11]: 0.179 µM
- TGI [11]: 31.9 µM
- GI50 [12]: 2.18 µM
- TGI [12]: 17.2 µM
- GI50 [13]: 0.0403 µM
- TGI [13]: 12.4 µM
- GI50 [14]: 1.49 µM
- TGI [14]: > 100 µM
- GI50 [15]: 0.743 µM
- TGI [15]: 13.5 µM
- GI50 [16]: 0.0367 µM
- TGI [16]: 11.5 µM
- GI50 [17]: 0.0838 µM
- TGI [17]: > 100 µM
- GI50 [18]: 0.725 µM
- TGI [18]: 17.8 µM
- GI50 [19]: 17.9 µM
- TGI [19]: 60.7 µM
- GI50 [20]: 1.7 µM
- TGI [20]: > 100 µM
- GI50 [21]: 2.72 µM
- TGI [21]: 23.6 µM
- GI50 [22]: 0.0199 µM
- TGI [22]: 0.0534 µM
- TGI [23]: 0.0209 µM
- GI50 [24]: 1.28 µM
- TGI [24]: 10.9 µM
- GI50 [25]: 1.26 µM
- TGI [25]: 14.9 µM
- GI50 [26]: 19.3 µM
- TGI [26]: > 100 µM
- GI50 [27]: 0.369 µM
- TGI [27]: 31.4 µM
- GI50 [28]: 0.0915 µM
- TGI [28]: 14.6 µM
- GI50 [29]: 9.41 µM
- TGI [29]: 50.4 µM
- GI50 [30]: 4.4 µM
- TGI [30]: 30.3 µM
- GI50 [31]: 7.27 µM
- TGI [31]: 36.9 µM
- GI50 [32]: 12 µM
- TGI [32]: 45.2 µM
- GI50 [33]: 0.0513 µM
- TGI [33]: 7.31 µM
- GI50 [34]: 0.0113 µM
- TGI [34]: 0.0549 µM
- GI50 [35]: 0.088 µM
- TGI [35]: 24.6 µM
- GI50 [36]: 0.0651 µM
- TGI [36]: 25.2 µM
- GI50 [37]: 13.2 µM
- TGI [37]: 51.7 µM
- GI50 [38]: 4.11 µM
- TGI [38]: 22.6 µM
- GI50 [39]: 0.0522 µM
- TGI [39]: 17 µM
- GI50 [40]: 9.37 µM
- TGI [40]: 61.9 µM
- GI50 [41]: 3.1 µM
- TGI [41]: 17 µM
- GI50 [42]: 0.202 µM
- TGI [42]: 28.1 µM
- GI50 [43]: 4.77 µM
- TGI [43]: 21.7 µM
- GI50 [44]: 13.7 µM
- TGI [44]: 52.6 µM
- GI50 [45]: 0.768 µM
- TGI [45]: 35.4 µM
- GI50 [46]: 4.32 µM
- TGI [46]: 20.7 µM
